Test results from the supplement of paper PMC10307832.

Compound: Nc1ccn([C@@H]2O[C@H](CO)[C@@H](O)C2(F)F)c(=O)n1 [Gemcitabine] + CC(C)C[C@H](NC(=O)[C@H](Cc1ccccc1)NC(=O)c1cnccn1)B(O)O [Bortezomib] (partner 0.002 µM)
Assay: relative viability (nuclei count vs DMSO), 5 days (fraction); higher = more cells survive
Summary of the method: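 After 5 days of treatment, lung cancer cells in 1536-well plates were fixed and stained in a single step (final 0.05% Triton X-100, 1% formaldehyde, 1 ug/ml Hoechst) and their nuclei counted on 4× images. Treatment had been applied by pin tool the day after seeding as one drug alone or as a fixed anchor-drug dose with five library-drug doses (not always all listed) in √10 steps. Relative viability is the nuclei count of treated wells divided by that of vehicle wells, and values are medians of duplicate plates.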

Row | Cell Line | relative viability (first compound 0.001 µM) | relative viability (first compound 0.003162 µM) | relative viability (first compound 0.01 µM) | relative viability (first compound 0.03162 µM) | relative viability (first compound 0.1 µM)
1 | H3255 | 0.848 | 0.547 | 0.576 | 0.19 | 0.199
2 | EPLC-272H | 0.87 | 0.786 | 0.419 | 0.358 | 0.121
3 | PC-3 [JPC-3] | 0.835 | 0.785 | 0.512 | 0.286 | 0.237
4 | EKVX | 0.995 | 1.07 | 0.461 | 0.18 | 0.142
5 | ChaGo-K-1 | 1 | 0.424 | 0.341 | 0.23 | 0.303
6 | NCI-H23 | 0.848 | 0.511 | 0.148 | 0.141 | 0.0999
7 | EMC-BAC-2 | 1.09 | 1.1 | 1.08 | 0.161 | 0.169
8 | LOU-NH91 | 0.498 | 0.494 | 0.423 | 0.323 | 0.313
9 | LU99A | 1.14 | 1.18 | 1 | 1.25 | 1.18
10 | NCI-H460 | 1.24 | 1.09 | 0.419 | 0.0106 | 0.0083
11 | 201T | 1.03 | 1.09 | 1.12 | 0.952 | 0.401
12 | NCI-H2405 | 0.974 | 0.957 | 0.582 | 0.275 | 0.231
13 | NCI-H1703 | 0.306 | 0.209 | 0.144 | 0.11 | 0.111
14 | NCI-H1755 | 0.952 | 0.958 | 0.84 | 0.343 | 0.312
15 | NCI-H2087 | 0.743 | 0.569 | 0.581 | 0.155 | 0.166
16 | NCI-H2228 | 0.98 | 1.06 | 0.281 | 0.198 | 0.126
17 | NCI-H727 | 0.841 | 0.405 | 0.241 | 0.258 | 0.287
18 | NCI-H650 | 0.847 | 0.327 | 0.201 | 0.151 | 0.175
19 | NCI-H520 | 0.604 | 0.698 | 0.295 | 0.154 | 0.11
20 | EBC-1 | 0.53 | 0.307 | 0.15 | 0.198 | 0.164
21 | NCI-H661 | 0.838 | 0.655 | 0.491 | 0.213 | 0.209
22 | NCI-H1299 | 1.03 | 1.07 | 1 | 0.995 | 1.07
23 | NCI-H1993 | 1.08 | 1.15 | 0.713 | 0.524 | 0.446

Row | Cell Line | relative viability (first compound 0.001 µM) | relative viability (first compound 0.003162 µM) | relative viability (first compound 0.01 µM) | relative viability (first compound 0.03162 µM) | relative viability (first compound 0.1 µM)
24 | NCI-H838 | 0.911 | 0.948 | 1.02 | 0.355 | 0.0993
25 | NCI-H1437 | 0.532 | 0.395 | 0.342 | 0.127 | 0.105
26 | LCLC-103H | 1.1 | 1.04 | 1.05 | 1.11 | 0.934
27 | NCI-H441 | 0.642 | 0.327 | 0.116 | 0.14 | 0.139
28 | SK-LU-1 | 1.16 | 0.281 | 0.23 | 0.175 | 0.224
29 | BEN | 0.79 | 0.669 | 0.198 | 0.118 | 0.113
30 | LC-2-ad | 0.998 | 0.992 | 0.476 | 0.11 | 0.0847
31 | COR-L23 | 1.04 | 0.949 | 0.66 | 0.114 | 0.101
32 | NCI-H1650 | 0.189 | 0.18 | 0.175 | 0.147 | 0.133
33 | RERF-LC-KJ | 1.12 | 1.25 | 0.92 | 0.559 | 0.294
34 | NCI-H1915 | 0.978 | 1 | 0.969 | 0.825 | 0.617
35 | NCI-H596 | 1 | 1.11 | 0.555 | 0.349 | 0.41
36 | IA-LM | 0.882 | 0.805 | 0.651 | 0.0803 | 0.0498
37 | NCI-H2009 | 1.06 | 0.586 | 0.133 | 0.111 | 0.0676
38 | NCI-H2126 | 1.05 | 1.1 | 1.04 | 0.985 | 0.67
39 | LXF-289 | 0.995 | 1.02 | 0.768 | 0.178 | 0.0983
40 | NCI-H1563 | 0.93 | 0.965 | 0.851 | 0.608 | 0.537
41 | HCC-44 | 0.895 | 0.874 | 0.701 | 0.393 | 0.131
42 | PC-14 | 0.867 | 0.507 | 0.42 | 0.0489 | 0.0512
43 | HOP-62 | 0.506 | 0.39 | 0.209 | 0.0446 | 0.0459
44 | NCI-H1666 | 0.739 | 0.979 | 0.567 | 0.24 | 0.225
45 | NCI-H1355 | 1.17 | 0.948 | 0.521 | 0.145 | 0.16
46 | HCC-827 | 0.964 | 1.08 | 0.875 | 0.607 | 0.427

Row | Cell Line | relative viability (first compound 0.001 µM) | relative viability (first compound 0.003162 µM) | relative viability (first compound 0.01 µM) | relative viability (first compound 0.03162 µM) | relative viability (first compound 0.1 µM)
47 | HARA | 1.15 | 1.22 | 1.04 | 0.695 | 0.1
48 | HCC-366 | 1.05 | 1.01 | 0.425 | 0.0213 | 0.0123
49 | NCI-H322M | 1.35 | 0.439 | 0.334 | 0.291 | 0.234
50 | NCI-H2347 | 0.621 | 0.961 | 0.534 | 0.653 | 0.401
51 | NCI-H1975 | 0.385 | 0.401 | 0.207 | 0.198 | 0.155
52 | UMC-11 | 0.979 | 0.693 | 0.677 | 0.669 | 0.158
53 | ABC-1 | 0.344 | 0.313 | 0.372 | 0.233 | 0.239
54 | A-427 | 0.99 | 0.996 | 0.68 | 0.225 | 0.139
55 | LCLC-97TM1 | 0.752 | 0.19 | 0.0897 | 0.0533 | 0.0696
56 | HCC-15 | 1.06 | 0.986 | 0.931 | 0.915 | 0.255
57 | NCI-H647 | 0.783 | 0.224 | 0.0897 | 0.0721 | 0.0698
58 | SW 1573 | 1.16 | 0.853 | 0.538 | 0.086 | 0.0926
59 | NCI-H1651 | 0.988 | 0.89 | 0.919 | 0.885 | 0.173
60 | NCI-H1792 | 1.08 | 0.925 | 0.308 | 0.133 | 0.093
61 | NCI-H2023 | 1.12 | 1.11 | 0.241 | 0.104 | 0.0584
62 | COR-L 105 | 0.867 | 0.851 | 0.479 | 0.23 | 0.201
63 | NCI-H1734 | 1.08 | 0.862 | 0.199 | 0.157 | 0.102
64 | NCI-H3122 | 1.08 | 0.985 | 0.889 | 0.303 | 0.24
65 | CAL-12T | 1.01 | 0.822 | 0.521 | 0.267 | 0.254
66 | HCC-78 | 0.593 | 0.314 | 0.335 | 0.302 | 0.193
67 | NCI-H2085 | 1.02 | 0.964 | 0.897 | 0.682 | 0.405
